Source: patent US9770452B2, “Quinoxaline derivatives as GPR6 modulators” (Takeda Pharmaceutical Company Limited, priority 2012, dated 2017)
Counter-ions that a name gives are not always drawn.

Target: T1, GPR6 receptor (Homo sapiens, UniProt P46095)
T1 construct: expressed in transfected cells
Assay: Inhibition of cAMP Activity of GPR6 In Vitro Assay (CHO-K1 cells, HTRF cAMP)
Assay type: cell-based
Details: not given
In short: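 CHO-K1 cells with doxycycline-induced (1 μg/ml, 20 h) GPR6 treated with compounds 45 min at 37 °C in Ringer's buffer (pH 7.4) with 0.5% fatty acid free BSA. Constitutive cAMP measured by Lance HTRF Ultra cAMP; IC50 from four-parameter logistic fit.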

T1 sequence (P46095 whole entry): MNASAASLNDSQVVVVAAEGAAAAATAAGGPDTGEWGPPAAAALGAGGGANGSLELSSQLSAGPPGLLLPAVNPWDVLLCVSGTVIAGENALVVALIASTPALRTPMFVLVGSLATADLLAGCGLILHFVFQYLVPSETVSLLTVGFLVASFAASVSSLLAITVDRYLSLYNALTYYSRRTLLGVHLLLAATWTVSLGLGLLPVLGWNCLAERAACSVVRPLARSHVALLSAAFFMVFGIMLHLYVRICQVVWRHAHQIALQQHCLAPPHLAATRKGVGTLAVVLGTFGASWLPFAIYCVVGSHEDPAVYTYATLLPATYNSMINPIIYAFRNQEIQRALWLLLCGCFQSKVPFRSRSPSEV

| Compound | IC50 [nM] |
| --- | --- |
| COc1ccc(OC2CCN(c3nc4c(N5CCOCC5)nccc4nc3NC3CC3)CC2)c(F)c1 [Cpd 606, N-cyclopropyl-3-(4-(2-fluoro-4-methoxyphenoxy)piperidin-1-yl)-5-morpholinopyrido[3,4-b]pyrazin-2-amine, 2,2,2-trifluoroacetic acid salt] | 717 |

Same assay, conditions: compounds of Compound Table 1; inhibition of constitutive cAMP activity of GPR6 expressed in CHO-K1 cells; approximate IC50; read-out: IC50

| Compound | IC50 [nM] |
| --- | --- |
| CC(C)Nc1nc2cnncc2nc1N1CCC(Oc2ccc(F)cc2F)CC1 [Cpd 633, 3-(4-(2,4-difluorophenoxy)piperidin-1-yl)-N-isopropylpyrazino[2,3-d]pyridazin-2-amine, 2,2,2-trifluoroacetic acid salt] | 4 |
| CC(C)Nc1nc2cnncc2nc1N1CCC(Oc2ccc(Cl)cc2F)CC1 [Cpd 644, 3-(4-(4-chloro-2-fluorophenoxy)piperidin-1-yl)-N-isopropylpyrazino[2,3-d]pyridazin-2-amine, 2,2,2-trifluoroacetic acid salt] | 7 |
| C[C@@H]1C[C@H]1Nc1nc2cnncc2nc1N1CCC([C@@H](F)c2ccc(F)cc2F)CC1 [Cpd 645, 3-(4-((R)-(2,4-difluorophenyl)fluoromethyl)piperidin-1-yl)-N-((1R,2R)-2-methylcyclopropyl)pyrazino[2,3-d]pyridazin-2-amine, 2,2,2-trifluoroacetic acid salt] | 145 |
| (1-(2-(cyclopropylamino)pyrido[3,4-b]pyrazin-3-yl)piperidin-4-yl)(2,4,6-trifluorophenyl)methanone, 2,2,2-trifluoroacetic acid salt [Cpd 444] | 200 |
| (1-(2-(cyclopropylamino)pyrido[3,4-b]pyrazin-3-yl)piperidin-4-yl)(2-(methylthio)phenyl)methanone, 2,2,2-trifluoroacetic acid salt [Cpd 581] | 6 |
| (1-(2-(cyclopropylamino)pyrido[3,4-b]pyrazin-3-yl)piperidin-4-yl)(2-fluoro-5-(methylthio)phenyl)methanone, 2,2,2-trifluoroacetic acid salt [Cpd 593] | 23 |
| (1-(2-(cyclopropylamino)pyrido[3,4-b]pyrazin-3-yl)piperidin-4-yl)(3-fluorophenyl)methanone, 2,2,2-trifluoroacetic acid salt [Cpd 568] | 2180 |
| (1-(2-(cyclopropylamino)pyrido[3,4-b]pyrazin-3-yl)piperidin-4-yl)(3-methoxyphenyl)methanone [Cpd 564] | 11000 |
| (1-(2-(cyclopropylamino)pyrido[3,4-b]pyrazin-3-yl)piperidin-4-yl)(o-tolyl)methanone, 2,2,2-trifluoroacetic acid salt [Cpd 565] | 15400 |
| (1-(2-(cyclopropylamino)pyrido[3,4-b]pyrazin-3-yl)piperidin-4-yl)(thiophen-2-yl)methanone, 2,2,2-trifluoroacetic acid salt [Cpd 573] | 2800 |
| (1-(2-(cyclopropylamino)pyrido[3,4-b]pyrazin-3-yl)piperidin-4-yl)(thiophen-3-yl)methanone, 2,2,2-trifluoroacetic acid salt [Cpd 584] | 1740 |
| (2-(cyclopropylamino)-3-(4-(2,4-difluorobenzyl)piperazin-1-yl)pyrido[3,4-b]pyrazin-7-yl)(morpholino)methanone, 2,2,2-trifluoroacetic acid salt [Cpd 611] | 44 |
| (2-(cyclopropylamino)-3-(4-(2-fluoro-4-methoxyphenoxy)piperidin-1-yl)pyrido[3,4-b]pyrazin-7-yl)(4-methylpiperazin-1-yl)methanone [Cpd 603] | 1020 |
| (2-bromophenyl)(1-(2-(cyclopropylamino)pyrido[3,4-b]pyrazin-3-yl)piperidin-4-yl)methanone, 2,2,2-trifluoroacetic acid salt [Cpd 585] | 6040 |
| (2-bromopyridin-3-yl)(1-(2-(cyclopropylamino)pyrido[3,4-b]pyrazin-3-yl)piperidin-4-yl)methanone, 2,2,2-trifluoroacetic acid salt [Cpd 586] | 2290 |
| (2-chloro-4-fluorophenyl)(4-(2-(cyclopropylamino)pyrido[3,4-b]pyrazin-3-yl)piperazin-1-yl)methanone, 2,2,2-trifluoroacetic acid salt [Cpd 363] | 230 |
| (2-chloro-5-fluorophenyl)(1-(2-(cyclopropylamino)pyrido[3,4-b]pyrazin-3-yl)piperidin-4-yl)methanone, 2,2,2-trifluoroacetic acid salt [Cpd 567] | 5780 |
| (2-chloro-6-fluorophenyl)(1-(2-(cyclopropylamino)pyrido[3,4-b]pyrazin-3-yl)piperidin-4-yl)methanone [Cpd 575] | 6750 |
| (2-chlorophenyl)(1-(2-(cyclopropylamino)pyrido[3,4-b]pyrazin-3-yl)piperidin-4-yl)methanone, 2,2,2-trifluoroacetic acid salt [Cpd 557] | 1920 |
| (2-fluoro-4-methoxyphenyl)(1-(3-(isopropylamino)pyrazino[2,3-d]pyridazin-2-yl)piperidin-4-yl)methanone, 2,2,2-trifluoroacetic acid salt [Cpd 641] | 14 |

| Compound | IC50 [nM] |
| --- | --- |
| (3-bromo-4-methylphenyl)(4-(3-(cyclopropylamino)quinoxalin-2-yl)piperazin-1-yl)methanone, 2,2,2-trifluoroacetic acid salt [Cpd 154] | 720 |
| (4-(2-(cyclopropylamino)pyrido[3,4-b]pyrazin-3-yl)piperazin-1-yl)(4-(difluoromethyl)phenyl)methanone, 2,2,2-trifluoroacetic acid salt [Cpd 289] | 270 |
| (4-bromo-3-fluorophenyl)(4-(3-(cyclopropylamino)-7-fluoroquinoxalin-2-yl)piperazin-1-yl)methanone [Cpd 247] | 1490 |
| (4-chloro-2-(trifluoromethyl)phenyl)(4-(2-(cyclopropylamino)pyrido[3,4-b]pyrazin-3-yl)piperazin-1-yl)methanone, 2,2,2-trifluoroacetic acid salt [Cpd 392] | 260 |
| (4-chloro-2-fluorophenyl)(1-(2-(cyclopropylamino)pyrido[3,4-b]pyrazin-3-yl)piperidin-4-yl)methanone, 2,2,2-trifluoroacetic acid salt [Cpd 447] | 35 |
| (4-chloro-2-fluorophenyl)(4-(2-((2,2-difluoroethyl)amino)pyrido[3,4-b]pyrazin-3-yl)piperazin-1-yl)methanone, 2,2,2-trifluoroacetic acid salt [Cpd 369] | 400 |
| (4-chloro-3-methylphenyl)(4-(3-(pyridin-3-ylamino)quinoxalin-2-yl)piperazin-1-yl)methanone, 2,2,2-trifluoroacetic acid salt [Cpd 230] | 800 |
| (4-chlorophenyl)(1-(2-(cyclopropylamino)pyrido[3,4-b]pyrazin-3-yl)piperidin-4-yl)methanone, 2,2,2-trifluoroacetic acid salt [Cpd 430] | 1100 |
| (4-chlorophenyl)(4-(2-(cyclopropylamino)pyrido[3,4-b]pyrazin-3-yl)piperazin-1-yl)methanone [Cpd 263] | 120 |
| (4-chlorophenyl)(4-(3-(pyridin-3-ylamino)quinoxalin-2-yl)piperazin-1-yl)methanone, 2,2,2-trifluoroacetic acid salt [Cpd 223] | 5620 |
| (6-chloro-2,3-difluorophenyl)(1-(2-(cyclopropylamino)pyrido[3,4-b]pyrazin-3-yl)piperidin-4-yl)methanone, 2,2,2-trifluoroacetic acid salt [Cpd 569] | 62 |
| (R)-2-((3-(4-(2,5-dichlorobenzyl)piperazin-1-yl)quinoxalin-2-yl)amino)propan-1-ol, 2,2,2-trifluoroacetic acid salt [Cpd 172] | 2340 |
| (R)-2-(cyclopropylamino)-3-(4-((2,4-difluorophenyl)fluoromethyl)piperidin-1-yl)-N,N-dimethylpyrido[3,4-b]pyrazine-7-carboxamide, 2,2,2-trifluoroacetic acid salt [Cpd 578] | 7210 |
| (R)-3-(4-((2,4-difluorophenyl)fluoromethyl)piperidin-1-yl)-N-isopropylpyrazino[2,3-d]pyridazin-2-amine, 2,2,2-trifluoroacetic acid salt [Cpd 640] | 72 |
| (R)-7-chloro-N-cyclopropyl-3-(4-((2,4-difluorophenyl)fluoromethyl)piperidin-1-yl)pyrido[3,4-b]pyrazin-2-amine, 2,2,2-trifluoroacetic acid salt [Cpd 523] | 340 |
| (R)-(2-(cyclopropylamino)-3-(4-((2,4-difluorophenyl)fluoromethyl)piperidin-1-yl)pyrido[3,4-b]pyrazin-7-yl)(morpholino)methanone, 2,2,2-trifluoroacetic acid salt [Cpd 580] | 8 |
| (R)-azetidin-1-yl(2-(cyclopropylamino)-3-(4-((2,4-difluorophenyl)fluoromethyl)piperidin-1-yl)pyrido[3,4-b]pyrazin-7-yl)methanone [Cpd 589] | 69 |
| (R)—N-cyclopropyl-3-(4-((2,4-difluorophenyl)fluoromethyl)piperidin-1-yl)pyrazino[2,3-d]pyridazin-2-amine, 2,2,2-trifluoroacetic acid salt [Cpd 599] | 5 |
| (S)-2-(cyclopropylamino)-3-(4-((2,4-difluorophenyl)fluoromethyl)piperidin-1-yl)-N,N-dimethylpyrido[3,4-b]pyrazine-7-carboxamide, 2,2,2-trifluoroacetic acid salt [Cpd 576] | 2880 |
| (S)-2-(cyclopropylamino)-3-(4-((2,4-difluorophenyl)fluoromethyl)piperidin-1-yl)-N,N-dimethylpyrido[3,4-b]pyrazine-7-carboxamide, 2,2,2-trifluoroacetic acid salt [Cpd 577] | 4900 |
